In brackets after ≈: the same amount, converted by molar mass. Like-named read-outs stand apart in the source and are kept apart here. Starred links: 1 amine or outer side, 2 acyl side, 3 side chain; linkers in the order of their positions; H or OH if unused. Positions of bridges follow the written chain, without caps; N, C: chain ends. Residues, ends and D or L forms follow the SMILES beside them. *: point of attachment. C20 diacid = O=C(O)CCCCCCCCCCCCCCCCCCC(=O)*; C18 diacid = O=C(O)CCCCCCCCCCCCCCCCC(=O)*; γGlu = O=C(O)[C@H](CCC(=O)[*:2])N[*:1]

The values that follow come from patent US8722849B2, “Polypeptides” (Novo Nordisk A/S, priority 2011, dated 2014).

The nature of data set [1]: Assay (IV) determination of solubility. The class given is physicochemical. An outline of the steps:
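Solubility is measured across pH 3.0–8.0 by mixing a ~500 nmol/ml aqueous polypeptide stock 1:1 with 100 mM glycylglycine or bistrispropane buffers. Samples stand 18 hours at room temperature, then are centrifuged and the soluble concentration is determined by HPLC.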

Data set [2] has as its target T1, human calcitonin receptor (Homo sapiens, UniProt P30988).
T1 construct: expressed in transfected cells; host or cells: BHK570
T1 sequence (P30988 25-474): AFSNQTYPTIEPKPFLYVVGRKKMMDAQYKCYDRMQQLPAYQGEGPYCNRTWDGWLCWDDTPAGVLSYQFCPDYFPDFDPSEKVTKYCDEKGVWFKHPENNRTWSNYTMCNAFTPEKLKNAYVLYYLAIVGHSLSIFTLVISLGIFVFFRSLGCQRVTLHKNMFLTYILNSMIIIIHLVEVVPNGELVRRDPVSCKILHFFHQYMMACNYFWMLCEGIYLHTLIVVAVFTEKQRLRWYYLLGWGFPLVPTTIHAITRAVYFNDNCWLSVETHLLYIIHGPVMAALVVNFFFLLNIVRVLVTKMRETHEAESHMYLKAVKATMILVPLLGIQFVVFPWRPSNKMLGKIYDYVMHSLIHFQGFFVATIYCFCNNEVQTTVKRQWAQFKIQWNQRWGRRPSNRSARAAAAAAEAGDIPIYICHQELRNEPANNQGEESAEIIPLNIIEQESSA
Put plainly: Assay (II)a functional CRE-luciferase assay, human calcitonin receptor. The conditions noted are these: Table 7; human calcitonin (CTa) receptor. The format is cell-based.

Data set [3] has as its target T2, rat amylin 3(a) receptor (rat calcitonin(a) receptor + rat RAMP3) (Rattus norvegicus, UniProt P32214+Q9JJ73).
T2 construct: expressed in transfected cells; host or cells: BHK tk'ts 13
T2 sequence (P32214 25-479 isoform P32214-2 limits assumed): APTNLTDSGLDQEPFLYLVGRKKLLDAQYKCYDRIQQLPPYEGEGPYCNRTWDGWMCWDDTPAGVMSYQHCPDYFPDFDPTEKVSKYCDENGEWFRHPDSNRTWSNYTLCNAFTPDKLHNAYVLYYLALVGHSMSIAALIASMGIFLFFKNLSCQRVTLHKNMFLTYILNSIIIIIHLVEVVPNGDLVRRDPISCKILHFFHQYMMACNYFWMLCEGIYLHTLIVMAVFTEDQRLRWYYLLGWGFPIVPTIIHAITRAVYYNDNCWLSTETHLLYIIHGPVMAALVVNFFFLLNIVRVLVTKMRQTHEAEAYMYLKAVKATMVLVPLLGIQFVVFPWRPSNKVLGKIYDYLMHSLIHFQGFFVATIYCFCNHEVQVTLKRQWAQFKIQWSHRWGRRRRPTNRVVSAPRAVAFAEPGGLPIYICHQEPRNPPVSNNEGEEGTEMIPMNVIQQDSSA
T2 sequence (Q9JJ73 23-147 partner): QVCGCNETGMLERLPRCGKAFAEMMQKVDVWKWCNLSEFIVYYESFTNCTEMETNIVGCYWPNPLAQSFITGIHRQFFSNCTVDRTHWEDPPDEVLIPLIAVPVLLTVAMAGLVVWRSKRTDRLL
Put plainly: Assay (II)b functional cAMP FlashPlate assay, rat amylin receptor. The format is cell-based. The settings on record: Table 11. An outline of the steps: (§1)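 BHK tk'ts 13 cells transiently transfected with rat calcitonin(a) receptor, alone or with rat RAMP3 (amylin 3(a)), were stimulated 24 hours later with sample for 30 min in buffer containing IBMX. cAMP measured by competitive radioactive FlashPlate assay, scintillation read after 3 h detection incubation.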

In data set [4] the target is T3, rat calcitonin (a) receptor (Rattus norvegicus, UniProt P32214).
T3 construct: expressed in transfected cells; host or cells: BHK tk'ts 13
T3 sequence (P32214 25-479 isoform P32214-2 limits assumed): T2 sequence (P32214 25-479 isoform P32214-2 limits assumed)
The data set can be described thus: Assay (II)b functional cAMP FlashPlate assay, rat calcitonin receptor. The settings on record: Table 11; read-out: CTa receptor rat EC50. The format is cell-based. The method in brief: as §1

Data set [5] concerns the target T4, human amylin receptor (amylin 3(a) receptor: human calcitonin receptor + RAMP-3) (Homo sapiens, UniProt O60896+P30988).
T4 construct: expressed in transfected cells; host or cells: BHK570
T4 sequence (P30988 25-474): T1 sequence (P30988 25-474)
T4 sequence (O60896 24-148 partner): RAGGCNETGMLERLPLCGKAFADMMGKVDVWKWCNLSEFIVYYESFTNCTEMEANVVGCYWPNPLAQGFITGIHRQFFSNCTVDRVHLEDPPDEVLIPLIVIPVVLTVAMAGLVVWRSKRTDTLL
The data set can be described thus: Assay (II)a functional CRE-luciferase assay, human amylin receptor. The conditions noted are these: Table 2; BHK amylin 3(a)-receptor/CRE-luc cells. The class given is cell-based.

Where [6] appears, read: bistrispropane buffer, pH 6, pH 6.0, read-out: Solubility pH 6.0.
Where [7] appears, read: bistrispropane buffer, pH 6.5, pH 6.5, read-out: Solubility pH 6.5.
The mark [8] stands for this setting: bistrispropane buffer, pH 7, pH 7.0, 18 hours at room temperature, Table 3, read-out: Solubility pH 7.0.
Setting [9] is: bistrispropane buffer, pH 7, pH 7.0, read-out: Solubility pH 7.0.
The mark [10] stands for this setting: bistrispropane buffer, pH 7.5, pH 7.5, read-out: Solubility pH 7.5.
Where [11] appears, read: bistrispropane buffer, pH 8, pH 8.0, read-out: Solubility pH 8.0.
The mark [12] stands for this setting: glycylglycine buffer, pH 3, pH 3.0, read-out: Solubility pH 3.0.
Where [13] appears, read: glycylglycine buffer, pH 4, pH 4.0, 18 hours at room temperature, Table 2, read-out: Solubility pH 4.0.
Where [14] appears, read: glycylglycine buffer, pH 4, pH 4.0, read-out: Solubility pH 4.0.
[15] abbreviates: glycylglycine buffer, pH 5, pH 5.0, read-out: Solubility pH 5.0.

In general, solubility refers to the dissolved amount per volume that the medium holds. As a reminder, the EC50 is the concentration needed to bring the measured effect to its halfway point. With `CC[C@H](C)[C@H](NC(=O)[C@@H]1CCCN1C(=O)CNC(=O)[C@H](Cc1ccccc1)NC(=O)[C@H](CC(N)=O)NC(=O)[C@H](CC(N)=O)NC(=O)[C@H](CO)NC(=O)[C@H](CO)NC(=O)[C@H](Cc1c[nH]cn1)NC(=O)[C@H](Cc1c[nH]cn1)NC(=O)[C@H](CC(C)C)NC(=O)[C@H](Cc1ccccc1)NC(=O)[C@H](CCC(=O)O)NC(=O)[C@H](C)NC(=O)[C@H](CC(C)C)NC(=O)[C@H](CCCNC(=N)N)NC(=O)[C@H](CCC(N)=O)NC(=O)[C@@H](NC(=O)[C@H](C)NC(=O)[C@@H]1CSSC[C@H](NC(=O)[C@H](Cc2c[nH]cn2)NC(=O)CC[C@H](NC(=O)CCCCCCCCCCCCCCCCC(=O)O)C(=O)O)C(=O)N[C@@H](CC(N)=O)C(=O)N[C@@H]([C@@H](C)O)C(=O)N[C@@H](C)C(=O)N[C@@H]([C@@H](C)O)C(=O)N1)[C@@H](C)O)C(=O)N[C@@H](CC(C)C)C(=O)N1CCC[C@H]1C(=O)N1CCC[C@H]1C(=O)N[C@H](C(=O)N[C@@H](CC(N)=O)C(=O)N[C@H](C(=O)NCC(=O)N[C@@H](CO)C(=O)N[C@@H](CC(N)=O)C(=O)N[C@H](C(=O)N[C@@H](Cc1ccc(O)cc1)C(N)=O)[C@@H](C)O)C(C)C)[C@@H](C)O` [Example 48, N-alpha-[(S)-4-Carboxy-4-(17-carboxyheptadecanoylamino)butyryl]-[His1,Glu14,His17]-pramlintide] ({C18 diacid-γGlu}-HCNTATCATQRLAEFLHHSSNNFGPILPPTNVGSNTY-NH2; disulfide 2-7 (inferred)), the solubility at 18 h is over 200 µM in data set [1] (setting [6]); 177 µM (≈ 785 µg/mL) in data set [1] (setting [7]); over 200 µM in data set [1] (setting [8]); over 200 µM in data set [1] (setting [9]); over 200 µM in data set [1] (setting [10]); over 200 µM in data set [1] (setting [11]). The solubility at 18 h in data set [1] (setting [12]), in data set [1] (setting [13]), in data set [1] (setting [14]) and in data set [1] (setting [15]) was over 200 µM in each case. For the same compound, the EC50 is 0.112 nM in data set [2], 0.015 nM in data set [3], 0.375 nM in data set [4] and 0.0425 nM in data set [5].

Take `CC[C@H](C)[C@H](NC(=O)[C@@H]1CCCN1C(=O)CNC(=O)[C@H](Cc1ccccc1)NC(=O)[C@H](CC(N)=O)NC(=O)[C@H](CC(N)=O)NC(=O)[C@H](CO)NC(=O)[C@H](CO)NC(=O)[C@H](Cc1c[nH]cn1)NC(=O)[C@H](Cc1c[nH]cn1)NC(=O)[C@H](CC(C)C)NC(=O)[C@H](Cc1ccccc1)NC(=O)[C@H](CCC(=O)O)NC(=O)[C@H](C)NC(=O)[C@H](CC(C)C)NC(=O)[C@H](CCCNC(=N)N)NC(=O)[C@H](CCC(N)=O)NC(=O)[C@@H](NC(=O)[C@H](C)NC(=O)[C@@H]1CSSC[C@H](NC(=O)[C@H](CCCCN)NC(=O)[C@H](CCC(=O)O)NC(=O)CC[C@H](NC(=O)CCCCCCCCCCCCCCCCCCC(=O)O)C(=O)O)C(=O)N[C@@H](CC(N)=O)C(=O)N[C@@H]([C@@H](C)O)C(=O)N[C@@H](C)C(=O)N[C@@H]([C@@H](C)O)C(=O)N1)[C@@H](C)O)C(=O)N[C@@H](CC(C)C)C(=O)N1CCC[C@H]1C(=O)N1CCC[C@H]1C(=O)N[C@H](C(=O)N[C@@H](CC(N)=O)C(=O)N[C@H](C(=O)NCC(=O)N[C@@H](CO)C(=O)N[C@@H](Cc1c[nH]cn1)C(=O)N[C@H](C(=O)N[C@@H](Cc1ccc(O)cc1)C(N)=O)[C@@H](C)O)C(C)C)[C@@H](C)O` [Example 56, N-alpha-[(S)-4-Carboxy-4-(19-carboxynonadecanoylamino)butyryl]-Glu-[Glu14,His17,His35]-pramlintide] ({C20 diacid-γGlu}-EKCNTATCATQRLAEFLHHSSNNFGPILPPTNVGSHTY-NH2; disulfide 3-8 (inferred)): the solubility at 18 h in data set [1] (setting [6]), in data set [1] (setting [7]), in data set [1] (setting [8]), in data set [1] (setting [9]), in data set [1] (setting [10]) and in data set [1] (setting [11]) was over 200 µM each time. Besides, the solubility at 18 h in data set [1] (setting [12]), in data set [1] (setting [13]), in data set [1] (setting [14]) and in data set [1] (setting [15]) was over 200 µM in each case. In addition, the EC50 in data set [2] is 0.352 nM; in data set [3] it was 0.643 nM; in data set [4] it was 4.97 nM; in data set [5], 0.299 nM.

For the compound `CC[C@H](C)[C@H](NC(=O)[C@@H]1CCCN1C(=O)CNC(=O)[C@H](Cc1ccccc1)NC(=O)[C@H](CC(N)=O)NC(=O)[C@H](CC(N)=O)NC(=O)[C@H](CO)NC(=O)[C@H](CO)NC(=O)[C@H](Cc1c[nH]cn1)NC(=O)[C@H](CCCNC(=N)N)NC(=O)[C@H](CC(C)C)NC(=O)[C@H](Cc1ccccc1)NC(=O)[C@H](CCC(=O)O)NC(=O)[C@H](C)NC(=O)[C@H](CC(C)C)NC(=O)[C@H](CCCNC(=N)N)NC(=O)[C@H](CCC(N)=O)NC(=O)[C@@H](NC(=O)[C@H](C)NC(=O)[C@@H]1CSSC[C@H](NC(=O)[C@H](CCCCN)NC(=O)[C@H](CCC(=O)O)NC(=O)CC[C@H](NC(=O)CCCCCCCCCCCCCCCCCCC(=O)O)C(=O)O)C(=O)N[C@@H](CC(N)=O)C(=O)N[C@@H]([C@@H](C)O)C(=O)N[C@@H](C)C(=O)N[C@@H]([C@@H](C)O)C(=O)N1)[C@@H](C)O)C(=O)N[C@@H](CC(C)C)C(=O)N1CCC[C@H]1C(=O)N1CCC[C@H]1C(=O)N[C@H](C(=O)N[C@@H](CC(N)=O)C(=O)N[C@H](C(=O)NCC(=O)N[C@@H](CO)C(=O)N[C@@H](Cc1c[nH]cn1)C(=O)N[C@H](C(=O)N[C@@H](Cc1ccc(O)cc1)C(N)=O)[C@@H](C)O)C(C)C)[C@@H](C)O` [Example 58, N-alpha-[(S)-4-Carboxy-4-(19-carboxynonadecanoylamino)butyryl]-Glu-[Glu14,Arg17,His35]-pramlintide] ({C20 diacid-γGlu}-EKCNTATCATQRLAEFLRHSSNNFGPILPPTNVGSHTY-NH2; disulfide 3-8 (inferred); C-terminus assumed), the solubility at 18 h in data set [1] (setting [6]) was over 200 µM; in data set [1] (setting [7]) it was over 200 µM; in data set [1] (setting [8]), over 200 µM; in data set [1] (bistrispropane buffer, pH 7, pH 7.0, Table 8, read-out: Solubility pH 7.0), over 200 µM; in data set [1] (bistrispropane buffer, pH 7, pH 7.0, Table 9, read-out: Solubility pH 7.0) it was over 200 µM; in data set [1] (setting [9]), over 200 µM. In addition, the solubility at 18 h in data set [1] (bistrispropane buffer, pH 7.5, pH 7.5, Table 9, read-out: Solubility pH 7.5) is over 200 µM; in data set [1] (setting [10]), over 200 µM; in data set [1] (setting [11]), over 200 µM; in data set [1] (setting [12]) it was over 200 µM; in data set [1] (setting [13]), over 200 µM; in data set [1] (setting [14]) it was over 200 µM. In addition, the solubility at 18 h in data set [1] (setting [15]) is over 200 µM. The EC50 in data set [2] worked out at 0.606 nM; in data set [3], 0.063 nM; in data set [4], 2.23 nM; in data set [5], 0.117 nM.
